Patent US11173145B2, “Compounds useful as inhibitors of indoleamine 2,3-dioxygenase and/or tryptophan dioxygenase” (Board of Regents, The University of Texas System, priority 2017, dated 2021)

Molecular target: T1, IDO1 (Homo sapiens, UniProt P14902)
T1 construct: endogenous in cells; host or cells: HeLa cells (ATCC), IFNgamma-induced
Test: IDO1 cell-based assay (HeLa cells, IFNgamma-induced, N-formylkynurenine/L-tryptophan by RFMS)
Settings: 10 ng/mL IFNgamma, 24 hours
In short: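 HeLa cells stimulated with 10 ng/mL IFNgamma and exposed to compound (0.5% DMSO final) for 24 h at 37 °C. Conditioned media deproteinized, then N-formylkynurenine and L-tryptophan quantified by RapidFire MS with deuterated tryptophan internal standard; IC50 by curve fitting. Viability checked by CellTiter-Glo.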

T1 sequence (P14902 whole entry): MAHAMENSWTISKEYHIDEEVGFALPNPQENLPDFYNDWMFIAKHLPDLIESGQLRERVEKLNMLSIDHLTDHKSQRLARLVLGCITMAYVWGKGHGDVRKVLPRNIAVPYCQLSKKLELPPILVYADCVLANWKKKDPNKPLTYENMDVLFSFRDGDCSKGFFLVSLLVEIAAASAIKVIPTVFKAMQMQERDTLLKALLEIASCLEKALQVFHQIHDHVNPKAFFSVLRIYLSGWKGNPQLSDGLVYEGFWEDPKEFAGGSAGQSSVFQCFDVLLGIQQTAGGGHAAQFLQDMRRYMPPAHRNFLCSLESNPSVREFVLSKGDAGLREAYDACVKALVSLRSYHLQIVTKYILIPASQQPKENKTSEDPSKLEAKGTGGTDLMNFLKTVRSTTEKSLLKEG

| Structure (SMILES) | IC50 |
| --- | --- |
| O=C(NC(CCO)[C@H]1[C@@H]2C[C@@H](Oc3ncnc4ccc(F)cc34)C[C@@H]21)c1ccc(Cl)cc1 (stereo partly drawn) [Compound 137, 4-chloro-N-(1-((1R,3s, 5S, 6r)-3-((6-fluoroquinazolin-4-yl)oxy)bicyclo[3.1.0]hexan-6-yl)-3-hydroxypropyl)benzamide] | 2 to 5 µM |
| CCC(NC(=O)c1ccc(Cl)cc1)[C@H]1[C@@H]2C[C@@H](Oc3cnnc4ccccc34)C[C@@H]21 (stereo partly drawn) [Compound 138, 4-chloro-N-(1-((1R,3r,5S,6r)-3-(cinnolin-4-yloxy)bicyclo[3.1.0]hexan-6-yl)propyl)benzamide] | < 0.2 µM |
| O=C(NC(CCO)[C@H]1[C@@H]2C[C@@H](Oc3cnnc4ccccc34)C[C@@H]21)c1ccc(Cl)cc1 (stereo partly drawn) [Compound 139, 4-chloro-N-(1-((1R,3s,5S,6r)-3-(cinnolin-4-yloxy)bicyclo[3.1.0]hexan-6-yl)-3-hydroxypropyl)benzamide] | 0.2 to 2 µM |
| O=C(NC(CCO)[C@H]1[C@@H]2C[C@@H](n3ncc(=O)c4ccccc43)C[C@@H]21)c1ccc(Cl)cc1 (stereo partly drawn) [Compound 140, 4-chloro-N-(3-hydroxy-1-((1R,3s, 5S, 6r)-3-(4-oxocinnolin-1(4H)-yl)bicyclo[3.1.0]hexan-6-yl)propyl)benzamide] | < 0.2 µM |
| CCC(NC(=O)c1ccc(Cl)cc1)[C@H]1[C@@H]2C[C@@H](n3cc(C(C)(C)O)nn3)C[C@@H]21 (stereo partly drawn) [Compound 141, 4-chloro-N-((R)-1-((1R,3S,5S,6r)-3-(4-(2-hydroxypropan-2-yl)-1H-1,2,3-triazol-1-yl)bicyclo[3.1.0]hexan-6-yl)propyl)benzamide] | 0.2 to 2 µM |
| CC[C@@H](NC(=O)c1ccc(Cl)cc1)[C@H]1[C@@H]2C[C@@H](n3cc(C(C)(C)O)nn3)C[C@@H]21 [Compound 142, 4-chloro-N-((S)-1-((1R,3R,5S,6r)-3-(4-(2-hydroxypropan-2-yl)-1H-1,2,3-triazol-1-yl)bicyclo[3.1.0]hexan-6-yl)propyl)benzamide] | > 5 µM |
| CC(NC(=O)c1ccc(C#N)cc1)[C@H]1[C@@H]2C[C@@H](NC(=O)c3ccccn3)C[C@@H]21 (stereo partly drawn) [Compound 143, N-((1R,3s,5S,6r)-6-(1-(4-cyanobenzamido)ethyl)bicyclo[3.1.0]hexan-3-yl)picolinamide] | < 0.2 µM |
| CCC(NC(=O)c1ccc(Cl)cc1)[C@H]1[C@@H]2C[C@@H](n3cc(CO)nn3)C[C@@H]21 (stereo partly drawn) [Compound 146, 4-chloro-N-(1-((1R,3s,5S,6r)-3-(4-(hydroxymethyl)-1H-1,2,3-triazol-1-yl)bicyclo[3.1.0]hexan-6-yl)propyl)benzamide] | 0.2 to 2 µM |
| C=C(C)c1cn([C@@H]2C[C@@H]3[C@H](C2)[C@H]3C(CC)NC(=O)c2ccc(Cl)cc2)nn1 (stereo partly drawn) [Compound 147, 4-chloro-N-(1-((1R,3s,5S,6r)-3-(4-(prop-1-en-2-yl)-1H-1,2,3-triazol-1-yl)bicyclo[3.1.0]hexan-6-yl)propyl)benzamide] | < 0.2 µM |
| O=C(O)CC(NC(=O)c1ccc(Cl)cc1)[C@H]1[C@@H]2C[C@@H](Oc3ncnc4ccc(F)cc34)C[C@@H]21 (stereo partly drawn) [Compound 148, 3-(4-chlorobenzamido)-3-((1R,3s,5S,6r)-3-((6-fluoroquinazolin-4-yl)oxy)bicyclo[3.1.0]hexan-6-yl)propanoic acid] | > 5 µM |
| CCC(NC(=O)c1ccc(Cl)cc1)[C@H]1[C@@H]2C[C@@H](NC(=O)c3ccncn3)C[C@@H]21 (stereo partly drawn) [Compound 149, N-((1R,3s,5S,6r)-6-(1-(4-chlorobenzamido)propyl)bicyclo[3.1.0]hexan-3-yl)pyrimidine-4-carboxamide] | < 0.2 µM |
| CCC(NC(=O)c1ccc(Cl)cc1)[C@H]1[C@@H]2C[C@@H](NC(=O)c3cccnn3)C[C@@H]21 (stereo partly drawn) [Compound 151, N-((1R,3s,5S,6r)-6-(1-(4-chlorobenzamido)propyl)bicyclo[3.1.0]hexan-3-yl)pyridazine-3-carboxamide] | < 0.2 µM |
| CCC(NC(=O)c1ccc(Cl)cc1)[C@H]1[C@@H]2C[C@@H](NC(=O)c3cnccn3)C[C@@H]21 (stereo partly drawn) [Compound 152, N-((1R,3s,5S,6r)-6-(1-(4-chlorobenzamido)propyl)bicyclo[3.1.0]hexan-3-yl)pyrazine-2-carboxamide] | < 0.2 µM |
| CCC(NC(=O)c1ccc(Cl)cc1)[C@H]1[C@@H]2C[C@@H](n3nncc3C(C)(C)O)C[C@@H]21 (stereo partly drawn) [Compound 154, 4-chloro-N-(1-((1R,3s,5S,6r)-3-(5-(2-hydroxypropan-2-yl)-1H-1,2,3-triazol-1-yl)bicyclo[3.1.0]hexan-6-yl)propyl)benzamide] | < 0.2 µM |
| CCC(NC(=O)c1ccc(Cl)cc1)[C@H]1[C@@H]2C[C@@H](n3nncc3CO)C[C@@H]21 (stereo partly drawn) [Compound 155, 4-chloro-N-(1-((1R,3s,5S,6r)-3-(5-(hydroxymethyl)-1H-1,2,3-triazol-1-yl)bicyclo[3.1.0]hexan-6-yl)propyl)benzamide] | 0.2 to 2 µM |
| CCC(NC(=O)c1ccc(Cl)cc1)[C@H]1[C@@H]2C[C@@H](NC(=O)N3CCNCC3)C[C@@H]21 (stereo partly drawn) [Compound 156, N-((1R,3s,5S,6r)-6-(1-(4-chlorobenzamido)propyl)bicyclo[3.1.0]hexan-3-yl)piperazine-1-carboxamide] | > 5 µM |

| Structure (SMILES) | IC50 |
| --- | --- |
| CCC(NC(=O)c1ccc(Cl)cc1)[C@H]1[C@@H]2C[C@@H](NC(=O)N3CCOCC3)C[C@@H]21 (stereo partly drawn) [Compound 157, N-((1R,3s,5S,6r)-6-(1-(4-chlorobenzamido)propyl)bicyclo[3.1.0]hexan-3-yl)morpholine-4-carboxamide] | 0.2 to 2 µM |
| CCC(NC(=O)c1ccc(Cl)cc1)[C@H]1[C@@H]2C[C@@H](NS(C)(=O)=O)C[C@@H]21 (stereo partly drawn) [Compound 159, 4-chloro-N-(1-((1R,3s,5S,6r)-3-(methylsulfonamido)bicyclo[3.1.0]hexan-6-yl)propyl)benzamide] | 0.2 to 2 µM |
| CCC(NC(=O)c1ccc(Cl)cc1)[C@H]1[C@@H]2C[C@@H](NS(=O)(=O)C3(C)CC3)C[C@@H]21 (stereo partly drawn) [Compound 160, 4-chloro-N-(1-((1R,3s,5S,6r)-3-((1-methylcyclopropane)-1-sulfonamido)bicyclo[3.1.0]hexan-6-yl)propyl)benzamide] | 0.2 to 2 µM |
| COC(=O)C(NC(=O)c1ccc(Cl)cc1)[C@H]1[C@@H]2C[C@@H](n3cc(C4CC4)nn3)C[C@@H]21 (stereo partly drawn) [Compound 169, methyl 2-(4-chlorobenzamido)-2-((1R,3s,5S,6r)-3-(4-cyclopropyl-1H-1,2,3-triazol-1-yl)bicyclo[3.1.0]hexan-6-yl)acetate] | 0.2 to 2 µM |
| CCC(NC(=O)c1ccc(Cl)cc1)[C@H]1[C@@H]2C[C@@H](n3cnnc3C3CC3)C[C@@H]21 (stereo partly drawn) [Compound 172, 4-chloro-N-(1-((1R,3s, 5S, 6r)-3-(3-cyclopropyl-4H-1,2,4-triazol-4-yl)bicyclo[3.1.0]hexan-6-yl)propyl)benzamide] | 0.2 to 2 µM |
| COCC(NC(=O)c1ccc(Cl)cc1)[C@H]1[C@@H]2C[C@@H](n3cc(C4CC4)nn3)C[C@@H]21 (stereo partly drawn) [Compound 173, 4-chloro-N-(1-((1R,3s,5S,6r)-3-(4-cyclopropyl-1H-1,2,3-triazol-1-yl)bicyclo[3.1.0]hexan-6-yl)-2-methoxyethyl)benzamide] | < 0.2 µM |
| CCC(NC(=O)c1ccc(Cl)cc1)[C@H]1[C@@H]2C[C@@H](n3ncc4ccncc43)C[C@@H]21 (stereo partly drawn) [Compound 174, N-(1-((1R,3s,5S,6r)-3-(1H-pyrazolo[3,4-c]pyridin-1-yl)bicyclo[3.1.0]hexan-6-yl)propyl)-4-chlorobenzamide] | < 0.2 µM |
| CCC(NC(=O)c1ccc(Cl)cc1)[C@H]1[C@@H]2C[C@@H](n3cc4cc(F)ccc4n3)C[C@@H]21 (stereo partly drawn) [Compound 207, 4-chloro-N-(1-((1R,3s,5S,6r)-3-(5-fluoro-2H-indazol-2-yl)bicyclo[3.1.0]hexan-6-yl)propyl)benzamide] | < 0.2 µM |
| C=C(C)c1cn([C@@H]2C[C@@H]3[C@H](C2)[C@H]3C(CC)NC(=O)c2ccc(Cl)cc2)nn1 (stereo partly drawn) [Compound 262, 4-chloro-N-(1-((1R,3S,5S,6r)-3-(4-(propen-2-yl)-1H-1,2,3-triazol-1-yl)bicyclo[3.1.0]hexan-6-yl)propyl)benzamide] | < 0.2 µM |
| CCC(NC(=O)c1ccc(Cl)cc1)[C@H]1[C@@H]2C[C@@H](Nc3c(F)cc(F)cc3[N+](=O)[O-])C[C@@H]21 (stereo partly drawn) [Compound 264, 4-chloro-N-(1-((1R,3s,5S,6r)-3-((2,4-difluoro-6-nitrophenyl)amino)bicyclo[3.1.0]hexan-6-yl)propyl)benzamide] | < 0.2 µM |
| CC[C@@H](NC(=O)c1ccc(Cl)cc1)[C@H]1[C@@H]2C[C@@H](c3ccnc4ccc(F)cc34)C[C@@H]21 [Compound 266, 4-chloro-N—((R)-1-((1R,3S,5S,6r)-3-(6-fluoroquinolin-4-yl)bicyclo[3.1.0]hexan-6-yl)propyl)benzamide] | < 0.2 µM |
| CCC(NC(=O)c1ccc(Cl)cc1)[C@H]1[C@@H]2C[C@@H](Nc3ccc(C#N)cc3[N+](=O)[O-])C[C@@H]21 (stereo partly drawn) [Compound 269, 4-chloro-N-(1-((1R,3s,5S,6r)-3-((4-cyano-2-nitrophenyl)amino)bicyclo[3.1.0]hexan-6-yl)propyl)benzamide] | < 0.2 µM |
| CCC(NC(=O)c1ccc(Cl)cc1)[C@H]1[C@@H]2C[C@@H](Nc3ccc(Cl)cc3[N+](=O)[O-])C[C@@H]21 (stereo partly drawn) [Compound 270, 4-chloro-N-(1-((1R,3s,5S,6r)-3-((4-chloro-2-nitrophenyl)amino)bicyclo[3.1.0]hexan-6-yl)propyl)benzamide] | < 0.2 µM |
| CCC(NC(=O)c1ccc(Cl)cc1)[C@H]1[C@@H]2C[C@@H](n3cnc4cc(Cl)ccc43)C[C@@H]21 (stereo partly drawn) [Compound 272, 4-chloro-N-(1-((1R,3s,5S,6r)-3-(5-chloro-1H-benzo[d]imidazol-1-yl)bicyclo[3.1.0]hexan-6-yl)propyl)benzamide] | < 0.2 µM |
| CC[C@@H](NC(=O)c1ccc(Cl)cc1)[C@H]1[C@@H]2C[C@@H](n3c(C(F)(F)F)nc4ccc(F)cc43)C[C@@H]21 [Compound 276, 4-chloro-N-((R)-1-((1R,3S,5S,6r)-3-(6-fluoro-2-(trifluoromethyl)-1H-benzo[d]imidazol-1-yl)bicyclo[3.1.0]hexan-6-yl)propyl)benzamide] | 0.2 to 2 µM |
